The values below come from patent US8138191B2, “Inhibitor compounds and cancer treatment methods” (Critical Outcome Technologies Inc., priority 2007, dated 2012).

What all share (type): cell-based, human
One assay deals with SHP77 cells. The experiment in a line: siRNA target knock-down with COTI-219, cell viability by trypan blue, SHP77. Conditions: SHP77, 500 nM, 48 h. As for the experimental part:
In brief, cells DMS114 and SHP77 cells were transfected with gene specific siRNA in the presence or absence of COTI-219 and cell viability determined after 24 to 48 h post-incubation using the trypan blue exclusion method.
Cell cultures were maintained under regular tissue culture conditions and passaged 1-2 times a week as recommended by ATCC. With the exception of the siRNA for Bim (Signal Silence Bim siRNA kit #6460 from Cell Signaling), all other siRNA reagents for gene knock-down experiments was obtained from Ambion (Silencer Negative Control #1 siRNA #AM4611, CDK2 Silencer Select #s204, HRAS Silencer Select #s807, Protein kinase C alpha Silencer Validated #301, MAPK3/Erk Silencer Pre-designed #214749, EGFR Silencer Select #s563, and ERBB2 Silencer Select #s611). […] The transfection method required optimization such that a knock-down of the target gene greater than ˜75% was achieved and confirmed by western blot analyses. […] Following an optimal knock-down level at >75%, 2×10^5 cells were incubated with 500 nM COTI-219 and number of viable cells was measured at 48 h.
Cell viability assays were performed 24 to 48 h following incubation with COTI-219 by the trypan blue exclusion method using a Beckman-Coulter Vi-CELL XR 2.03 automated cell counter. Routine laboratory methods were employed for the production of cellular lysates, protein quantitation, SDS-PAGE and western blotting. […]

The test system of another assay is HeLa cells. The experiment in a line: Sensitivity to COTI-2 after PTEN siRNA knockdown (alamar Blue), HeLa. To be noted: 48 h post-transfection. As for the experimental part:
Briefly, HeLa and MCF-7 cells were transfected with 100 nM PTEN siRNA or control non-targeted siRNA at 48 or 144 h prior to exposure to various concentrations of COTI-2.
To assess the capacity of transient siRNA transfection to alter the ability of cells to proliferate in the presence or absence of COTI-2, HeLa or MCF-7 cells (both PTEN-positive) were plated in T25 flasks and transfected 24 h later with PTEN siRNA or non-targeting control siRNA (100 nM in both cases), using Oligofectamine Reagent (Invitrogen) according to the manufacturer's instructions and as previously described (J Pharmacol Exp Ther, 322:123-132). […] PTEN and 18S rRNA mRNA levels were determined by semi-quantitative reverse transcription PCR. […]
For determination of drug sensitivity, HeLa and MCF-7 cells (transfected with PTEN siRNA or control, non-targeted siRNA 48 or 144 hours prior) were re-plated in 96-well plates (VWR, Mississauga, ON, Canada) at 1700 (MCF-7) and 1200 (HeLa) cells per well in a volume of 100 μl of DMEM+10% FBS. […] Cells were then grown for 4 days, and viable cell numbers were assessed by the alamar Blue fluorescence assay using a Wallac Victor^2 multilabel counter (PerkinElmer Wallac, Gaithersburg, Md.). […]

Assay [1] relates to AKT1, AKT2, AKT3 expression in a panel of cell lines. In words: Correlation between AKT isoform expression and COTI-2 IC50 in a panel of cell lines. To be noted: corrected for total AKT expression. An excerpt: Cell cultures were maintained under regular tissue culture conditions and passaged 1-2 times a week as recommended by ATCC. For siRNA experiments the manufacturer's conditions for growth and transfection were followed. All siRNA reagents for AKT and AKT2 transfections were obtained from Cell Signaling.
Routine laboratory methods were employed for the production of cellular lysates, protein quantification, SDS-PAGE and western blotting. All antibodies were obtained from Cell Signaling and Abcam. To determine total AKT & AKT2 in DMS114 cells, 5×10^4 cells were incubated for 48 h with 10-100 ng of AKT2 siRNA or a scrambled control oligonucleotide. Cells were lysed and 50 μg of protein was separated by SDS-PAGE and blotted with antibody to total AKT or AKT2.
The expression of AKT1, AKT2, AKT3, total AKT and β-actin were examined in a panel of cell lines representing various types of cancers, with the aim of determining if a correlation exists with the pre-determined IC50's for these cell lines. […] The down-regulation of AKT2 prior to the addition of COTI-2 was confirmed with western blotting in DMS114 cell lines using an antibody to AKT2 (FIG. 35).

As to `CN1CCN(C(=S)NN=C2c3ncccc3-c3cccnc32)CC1` [COTI-219], in the assay on SHP77 cells, the “target knock-downs suppressing the apoptotic/cell growth inhibitory effect of COTI-219” value is “not only Ras but Erbb2, Erk1, and PKC-α all suppressed”.

`S=C(N/N=C1/CCCc2cccnc21)N1CCN(c2ccccn2)CC1` [COTI-2]: the “resistance to COTI-2 after PTEN siRNA transfection” value in the assay with HeLa cells is listed as “significant increase in the resistance”. Also, in assay [1], the “correlation of AKT2 expression with COTI-2 IC50” value is on record as “inversely correlated”.
